Consider eleven compounds from ChEMBL document CHEMBL3045989, “The Veratrum alkaloids jervine, veratramine, and their analogues as prostate cancer migration and proliferation inhibitors: biological evaluation and pharmacophore modeling” (Med Chem Res, 2013).

Activity calls are given as the source filed them. The rule behind the calls is not given here.

Holding throughout (type): functional, cell-based
Test [1] has as its system PC-3. Description: Antimigratory activity against Homo sapiens (human) PC3 cells at 50 uM after 24 hr by wound-healing assay.
The test system of test [2] is PC-3. Description: Antiproliferative activity against Homo sapiens (human) PC3 cells at 50 uM after 72 hr by MTT assay.
For test [3], the system named is PC-3. Description: Antiproliferative activity against Homo sapiens (human) PC3 cells at 10 uM after 72 hr by MTT assay.
In test [4] the test system is PC-3. Description: Antimigratory activity against Homo sapiens (human) PC3 cells at 200 uM after 24 hr by wound-healing assay.
The test system of test [5] is PC-3. Description: Antiproliferative activity against Homo sapiens (human) PC3 cells at 1 uM after 72 hr by MTT assay.

With `Cc1c([C@H](C)[C@@H]2NC[C@@H](C)C[C@H]2O)ccc2c1C[C@H]1[C@H]2CC[C@H]2CC(=O)CC[C@@]21C`, the outcome in the test with PC-3 [1] and in the test with PC-3 [2] was Active.
With `CC1=C2C(=O)[C@H]3[C@@H](CC=C4C[C@@H](O[C@@H]5O[C@H](CO)[C@@H](O)[C@H](O)[C@H]5O)CC[C@@]43C)[C@@H]2CC[C@]12O[C@@H]1C[C@H](C)CN[C@H]1[C@H]2C`, the outcome with PC-3 [1] and in the test on PC-3 [2] was inactive.
In the case of `CC1=C2C(=O)[C@H]3[C@@H](CC[C@H]4C[C@@H](O)C[C@H](O)[C@@]43C)[C@@H]2CC[C@]12O[C@@H]1C[C@H](C)CN[C@H]1[C@H]2C`, the outcome in the test with PC-3 [1] was Active. Besides, in the test on PC-3 [2], the result was inactive.
On the same counts, the results for `CC1=C2C(=O)[C@H]3[C@@H](CC=C4C[C@@H](O)CC[C@@]43C)[C@@H]2CC[C@]12O[C@@H]1C[C@H](C)CN[C@H]1[C@H]2C` are “Active” and “Active”.
As for `Cc1c([C@H](C)[C@@H]2NC[C@@H](C)C[C@H]2O)ccc2c1C[C@H]1[C@H]2CCC2=CC(=O)C=C[C@@]21C`, the result in the test on PC-3 [1] and in the test with PC-3 [2] was Active.
As to `Cc1c([C@H](C)[C@@H]2NC[C@@H](C)C[C@H]2O)ccc2c1C[C@H]1[C@H]2CCC2=CC(=O)CC[C@@]21C`, the result in the test on PC-3 [1], in the test with PC-3 [3] and in the test on PC-3 [2] was Active.
In the case of `CC1=C2C(=O)[C@H]3[C@@H](CC=C4CC(=O)CC[C@@]43C)[C@@H]2CC[C@]12O[C@@H]1C[C@H](C)CN[C@H]1[C@H]2C`, the outcome in the test on PC-3 [1] and in the test on PC-3 [2] was Active.
Regarding `Cc1c([C@H](C)[C@@H]2NC[C@@H](C)C[C@H]2O)ccc2c1C[C@H]1[C@H]2CC=C2C[C@@H](O)CC[C@@]21C`, the outcome in the test with PC-3 [1] and with PC-3 [2] was Active.
As for `O=C1NC(=O)/C(=C/c2ccc(O)cc2)N1`, the outcome in the test on PC-3 [4] was Active.
Consider `C/C1=C/C(=O)O[C@@H]2C[C@@H](CC[C@H](C)/C=C\C=C\CC1)O[C@@](O)([C@@H]1CSC(=O)N1)C2`, for which the result in the test with PC-3 [5] was Active.
As to `CC1=C2C(=O)[C@H]3[C@@H](CC[C@H]4C[C@@H](O)CC[C@@]43C)[C@@H]2CC[C@]12O[C@@H]1C[C@H](C)CN[C@H]1[C@H]2C`, the outcome in the test with PC-3 [1] was inactive. In the test on PC-3 [2], the result was Active.
